Procedure: To test for sensor stability and performance, a cartridge use life test was completed after one month of cartridge shelf-life and then repeated after eight months of cartridge shelf-life.
Additionally, reagent performance on the GEM® Premier™ 5000 system was evaluated based on drift of parameters for assays performed on the GEM® Premier™ 5000 system. Drift for each assay parameter constitutes a deviation of measured results for each assay parameter from its factory assigned target. For example, ρO2 was measured several times during cartridge use at a defined frequency on the GEM® Premier™ 5000, and the drift was calculated for each measurement as the difference between measured […] for a composition and the ρO2 assigned to the composition at manufacture.
In this experiment, the control containers were confirmed to contain limited or no metal contamination (e.g., in parts-per-billion, cobalt 0.10, chromium 2.24, copper 0.64, iron 3.23, and manganese 0.63). The limits columns represents the maximum change that can occur during composition shelf-life according to the GEM® Premier™ 5000 design specifications.

C[C@H]1COc2c(N3CCN(C)CC3)c(F)cc3c(=O)c(C(=O)O)cn1c23 [levofloxacin]
effect on sensor performance and the performance and stability of the compositions: does not negatively affect sensor performance

From patent EP4571306A1, “STABILIZING OXYGEN IN A COMPOSITION” (priority 2023, dated 2025)
